Drawing on patent US20190322643A1 (Georgia State University Research Foundation, Inc., priority 2016, published 2019), this text covers IC50, inhibition and EC50 for 10 compounds.

By IC50 is commonly meant the concentration needed to halve the response being measured. In general, inhibition refers to the percentage by which the read-out fell short of the control. A higher inhibition goes with a response far below the control. A word on the EC50: it is the concentration at which the effect is half-maximal. Low readings indicate a more potent agent, high ones a less potent agent.

Each structure is given as a SMILES string.

Experiment [1] relates to HDAC. As to the kind of experiment: Cell based homogenous HDAC assay, Hela. Particulars: read-out: IC50-HDAC Hela; Hela cells, mean ± SD of triplicate.
For experiment [2], the system named is HDAC. As to the kind of experiment: Cell based homogenous HDAC assay, K562. Particulars: read-out: IC50-HDAC K562; K562 cells, mean ± SD of triplicate.
Experiment [3] concerns the target T1, Mouse histone methyltransferase G9a (969-1263) (Mus musculus, UniProt Q9Z148).
T1 construct: The 6His-sumo mG9a (969-1263) protein was purified using the following procedure; 6His-sumo (cleaved yes); made in house; host or cells: Escherichia coli BL21 (DE3)
T1 sequence (Q9Z148 969-1263): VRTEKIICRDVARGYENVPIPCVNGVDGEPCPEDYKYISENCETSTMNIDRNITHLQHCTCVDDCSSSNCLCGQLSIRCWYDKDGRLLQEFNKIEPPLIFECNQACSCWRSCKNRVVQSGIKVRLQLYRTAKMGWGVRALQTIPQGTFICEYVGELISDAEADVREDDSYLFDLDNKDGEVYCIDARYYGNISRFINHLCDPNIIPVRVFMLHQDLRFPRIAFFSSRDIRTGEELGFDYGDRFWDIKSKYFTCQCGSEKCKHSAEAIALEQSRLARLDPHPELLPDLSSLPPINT
Description: MALDI-TOF methylation study of G9a inhibition. The experiment is classed as biochemical. Particulars: inhibitors at 5 μM concentration for 30 min. As to the method:
Mouse histone methyltransferase G9a (969-1263) cDNA was amplified from the cDNA of BALB/c mouse thymus, and the fragment was sub-cloned into a vector with a 6His-sumo tag. […] The 6His-sumo mG9a (969-1263) protein was purified using the following procedure: harvested cell pellet was re-suspended in 20 mM Tris (pH 8.0), 500 mM NaCl, 0.1% β-mercaptoethanol, and 1 mM PMSF. Cells were lysed by sonicating for 15 seconds with 6 second intervals for a total time of 15 minutes on an ice bath. […] The 6His-sumo tag was cleaved from the column by adding Ubiquitin-like-specific protease 1 (ULP-1) at 4° C. for 12 hours. Wash buffer was then run through the Ni^+ column again and the elution buffer collected. Subsequently, advanced protein purification was done by HiTrap Q HP sequential Superdex 200 10/300 GL. Elute of every step was analyzed by SDS PAGE, stained by Coomassie brilliant blue (CBB). […] The reaction was incubated at room temperature for 30 min, and stopped by TFA. 1 μL of the sample was mixed with CHCA matrix and m/z peaks were obtained at reflection positive mode. The results of mass spectrum were analyzed using the Bruker flex analysis software and data processing was carried out as described below. MALDI-TOF based experiments were performed according to the protocol developed by Chang et al. (Nat. Struct. Mol. Biol. 2009, 16, 312-317). MALDI spectra were collected using Bruker flex control software and analyzed by flex analysis. After labelling each cluster peaks of H3K9Me0, H3K9Me1 and H3K9Me2 for all of the tested concentrations, area under the cluster (AUC) were extracted by using the same flex analysis software. % abundance of each peak was calculated by following formula: A=% Abundance of (H3K9Me0)=area of H3K9Me0/(area of H3K9Me0+area of H3K9Me1+area of H3K9Me2) B=% Abundance of (H3K9Me1)=area of H3K9Me1/(area of H3K9Me0+area of H3K9Me1+area of H3K9Me2) C=% Abundance of (H3K9Me2)=area of H3K9Me2/(area of H3K9Me0+area of H3K9Me1+area of H3K9Me2). This was repeated for each spectra (3 multiples for each samples). […] Finally % inhibition was found by subtracting % MA(i) from 100. […] A biochemical assay using MALDI-TOF was used to visualize the effects of the synthesized compounds on G9a enzymatic activity. […] Struct. Mol. Biol. 2009, 16, 312-317).

Another experiment has as its system A549. Description: Cytotoxicity / anti-proliferation assay (CCK-8), A549. The class given is cell-based. Particulars: Homo sapiens, 72 h, CCK-8 kit. As for the experimental part: (§1) Then the cells were exposed to the different inhibitors with various concentrations for 72 h. […] EC50s were calculated using GraphPad Prizm statistical package with sigmoidal variable slope dose response curve fit.
(§2) Cell anti-proliferation assays were performed to determine the toxicity of these inhibitors. […] These compounds were further evaluated against the control cell line HEK293 to test their toxicity with a non-cancerous cell line.
Background: Tetrazolium assays rely on reduction of a dye to a coloured formazan, in cell work by metabolically active cells.

Another experiment has as its system HCT-8. Description: Cytotoxicity / anti-proliferation assay (CCK-8), HCT-8. The class given is cell-based. Particulars: Homo sapiens, 72 h, CCK-8 kit. As to the method:
as §1, §2

In experiment [4] the test system is HDAC. As to the kind of experiment: Cell based homogenous HDAC assay, A549. The settings on record: read-out: IC50-HDAC A549; A549 cells, mean ± SD of triplicate.
The next experiment deals with T2, G9a (Homo sapiens, UniProt Q96KQ7).
T2 construct: endogenous in cells; host or cells: MDA-MB-231
T2 sequence (Q96KQ7 1-1210): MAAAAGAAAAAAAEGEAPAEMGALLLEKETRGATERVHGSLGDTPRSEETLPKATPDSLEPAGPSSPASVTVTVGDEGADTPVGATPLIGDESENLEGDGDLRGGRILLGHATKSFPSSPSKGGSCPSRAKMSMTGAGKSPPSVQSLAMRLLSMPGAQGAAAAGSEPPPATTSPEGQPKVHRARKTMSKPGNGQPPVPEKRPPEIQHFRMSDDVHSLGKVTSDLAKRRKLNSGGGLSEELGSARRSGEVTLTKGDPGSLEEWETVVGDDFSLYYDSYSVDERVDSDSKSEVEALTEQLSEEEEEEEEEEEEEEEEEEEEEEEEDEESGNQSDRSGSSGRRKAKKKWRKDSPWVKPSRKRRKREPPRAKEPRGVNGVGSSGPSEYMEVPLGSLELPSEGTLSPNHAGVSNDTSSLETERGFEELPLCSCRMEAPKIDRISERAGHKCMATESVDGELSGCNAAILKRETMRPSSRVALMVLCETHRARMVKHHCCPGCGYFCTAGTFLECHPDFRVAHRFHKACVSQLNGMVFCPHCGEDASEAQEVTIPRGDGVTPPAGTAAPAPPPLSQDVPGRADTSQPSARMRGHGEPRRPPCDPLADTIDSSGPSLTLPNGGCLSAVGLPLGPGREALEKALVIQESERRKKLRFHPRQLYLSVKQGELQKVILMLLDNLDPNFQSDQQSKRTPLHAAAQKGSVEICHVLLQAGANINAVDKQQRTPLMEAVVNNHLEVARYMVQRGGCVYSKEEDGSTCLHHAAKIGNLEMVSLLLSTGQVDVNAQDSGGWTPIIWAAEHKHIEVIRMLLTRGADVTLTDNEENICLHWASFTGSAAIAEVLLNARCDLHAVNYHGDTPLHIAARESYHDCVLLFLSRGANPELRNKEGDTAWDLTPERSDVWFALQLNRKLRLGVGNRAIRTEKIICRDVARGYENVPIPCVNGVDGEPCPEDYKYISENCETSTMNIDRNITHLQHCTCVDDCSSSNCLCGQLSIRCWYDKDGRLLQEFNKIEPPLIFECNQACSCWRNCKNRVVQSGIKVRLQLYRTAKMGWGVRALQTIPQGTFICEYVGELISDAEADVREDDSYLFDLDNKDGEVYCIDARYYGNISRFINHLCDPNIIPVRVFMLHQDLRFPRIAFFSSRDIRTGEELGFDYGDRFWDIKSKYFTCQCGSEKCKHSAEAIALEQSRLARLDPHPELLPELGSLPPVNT
As to the kind of experiment: H3K9Me2 cell immunofluorescence in-cell Western (ICW) assay. The experiment is classed as cell-based. Particulars: MDA-MB-231 cell line, 48 h. As for the experimental part:
After the incubation, the media was removed and 100 μl fixation and permeabilization solution (2% formaldehyde in PBS) for fixation was added for 30 min. And then use 200 μl 0.1% Triton X100 in PBS washing solution to wash (allow wash to shake on a plate shaker for 5 minutes). After five washes, cells were blocked for 1 h with 150 μl blocking buffer to each well (1% BSA in PBS) (allow blocking at RT with moderate shaking on a plate shaker). After 1 h, remove the blocking buffer from the blocking step and add primary antibody in blocking buffer to cover the bottom of each well. […] The plates were read on an Odyssey CLX (LiCor) scanner at both 800 nm (H3K9me2 signal) and 700 nm (cell tag 700 stain signal) channels. IC50s were calculated using GraphPad Prizm statistical package with sigmoidal variable slope dose response curve fit.

With `COc1cc2nc(NCCNC(=O)CCCCC(=O)NO)nc(NC3CCN(C)CC3)c2cc1OC` [Compound 6, N1-(2-((6,7-dimethoxy-4-((1-methylpiperidin-4-yl)amino)quinazolin-2-yl)amino)ethyl)-N6-hydroxyadipamide], the IC50 with HDAC [1], in the experiment with HDAC [2], in the experiment with HDAC [4] and against G9a was > 100 µM each time. At 5 µM the inhibition in experiment [3] was 26.6 ± 11.3%. Also, the EC50 with A549 and in the experiment with HCT-8 was > 100 µM throughout.
For the compound `COc1ccc2c(NC3CCN(Cc4ccccc4)CC3)nc(NCCNC(=O)CCCC(=O)NO)nc2c1` [Compound 16, N1-(2-((4-((1-benzylpiperidin-4-yl)amino)-7-methoxyquinazolin-2-yl)amino)ethyl)-N5-hydroxyglutaramide], in experiment [3], at 5 µM the inhibition was 40.3 ± 13.8%. This compound returned an EC50 with HCT-8 of 83.9 µM. In addition, on G9a, the IC50 stood at 90.3 ± 3.75 µM.
The compound `COc1ccc2c(NCCNC(=O)CCCCCC(=O)NO)nc(N3CCCN(C)CC3)nc2c1` [Compound 22, N1-hydroxy-N7-(2-((7-methoxy-2-(4-methyl-1,4-diazepan-1-yl)quinazolin-4-yl)amino)ethyl)heptanediamide] had an inhibition at 5 µM in experiment [3] of 40.3 ± 15.3%. In addition, the EC50 in the experiment on A549 and in the experiment on HCT-8 was > 100 µM throughout. The compound further registered an IC50 against G9a of 60.6 ± 3.66 µM.
Turning to `COc1ccc2c(NC3CCN(C)CC3)nc(NCCNC(=O)CCCCCC(=O)NO)nc2c1` [Compound 14a, N1-hydroxy-N7-(2-((7-methoxy-4-((1-methylpiperidin-4-yl)amino)quinazolin-2yl)amino)ethyl) heptanediamide], in experiment [3], the inhibition at 5 µM came out at 29.7 ± 23.3%. Further, the concentration for a half-maximal effect (EC50) with A549 and in the experiment on HCT-8 was > 100 µM in each case. On G9a, this compound came in with an IC50 of 46.8 ± 1.97 µM.
Compound `COc1cc2nc(N3CCCN(C)CC3)nc(NC3CCN(C(=O)CCCCCCC(=O)NO)CC3)c2cc1OC` [Compound 19, 8-(4-((6,7-dimethoxy-2-(4-methyl-1,4-diazepan-1-yl)quinazolin-4-yl)amino)piperidin-1-yl)-N-hydroxy-8-oxooctanamide] came in with an inhibition at 5 µM in experiment [3] of 10.7 ± 25.9%. Further, the EC50 in the experiment on A549 and in the experiment on HCT-8 was > 100 µM each time. For the same compound, the IC50 on G9a was 99.6 ± 3.13 µM.
On to `COc1cc2nc(N3CCCN(C)CC3)nc(NC3CCN(C(=O)CCCCCC(=O)NO)CC3)c2cc1OC` [Compound 20, 7-(4-((6,7-dimethoxy-2-(4-methyl-1,4-diazepan-1-yl)quinazolin-4-yl)amino)piperidin-1-yl)-N-hydroxy-7-oxoheptanamide], for which at 5 µM the inhibition in experiment [3] was 14.6 ± 15.8%. Moreover, the EC50 with A549 and in the experiment on HCT-8 was > 100 µM in each case. The compound also showed an IC50 on G9a of 97.5 ± 2.78 µM.
In experiment [3], `COc1ccc2c(NC3CCN(Cc4ccccc4)CC3)nc(NCCNC(=O)CCCCC(=O)NO)nc2c1` [Compound 15, N1-(2-((4-((1-benzylpiperidin-4-yl)amino)-7-methoxyquinazolin-2-yl)amino)ethyl)-N6-hydroxyadipamide] gave an inhibition at 5 µM of 47.9 ± 12.9%. In addition, the EC50 in the experiment on A549 and with HCT-8 was > 100 µM each time. The same compound came in with an IC50 against G9a of 72.1 ± 1.37 µM.
In experiment [3], `COc1ccc2c(NC3CCN(C)CC3)nc(NCCNC(=O)CCCCC(=O)NO)nc2c1` [Compound 15a, N1-hydroxy-N6-(2-((7-methoxy-4-((1-methylpiperidin-4-yl)amino)quinazolin-2-yl)amino)ethyl)adipamide] had an inhibition at 5 µM of 69.1 ± 24.5%. For the same compound, the concentration giving a half-maximal response (EC50) in the experiment with A549 and in the experiment with HCT-8 was > 100 µM each time. The same compound returned an IC50 at G9a of 47 ± 3.33 µM.
In experiment [3], `COc1ccc2c(NCCNC(=O)CCCCCCC(=O)NO)nc(N3CCCN(C)CC3)nc2c1` [Compound 21, N1-hydroxy-N8-(2-((7-methoxy-2-(4-methyl-1,4-diazepan-1-yl)quinazolin-4 yl)amino)ethyl)octanediamide] showed an inhibition at 5 µM of 22.8 ± 26.7%. In addition, the EC50 in the experiment on A549 and in the experiment on HCT-8 was > 100 µM each time.
`COc1ccc2c(NC3CCN(C)CC3)nc(NCCNC(=O)CCCC(=O)NO)nc2c1` [Compound 16a, N1-hydroxy-N5-(2-((7-methoxy-4-((1-methylpiperidin-4-yl)amino)quinazolin-2-yl)amino)ethyl)glutaramide]: the inhibition at 5 µM in experiment [3] turned out to be 40.3 ± 13.8%. The EC50 in the experiment with A549 and with HCT-8 was > 100 µM throughout. This compound displayed an IC50 on G9a of 45.7 ± 1.76 µM.
